In patent publication US20260217765A1, “NOVEL ANTIMICROBIAL PEPTIDE DESIGNED FROM DUCK-DERIVED ANTIMICROBIAL PEPTIDE ANDUSE THEREOF” (INDUSTRY-ACADEMIC COOPERATION FOUNDATION, CHOSUN UNIVERSITY, priority 2023, published 2026):
In brackets after ≈: the same amount, converted by molar mass. Peptide text beside a SMILES is read from it.

Experiments:
[1] = test system: Acinetobacter baumannii_isolate 22 (antibiotic-resistant); format: cell-based, Acinetobacter baumannii; details: isolate 22 (antibiotic-resistant)
Source text: (§1) To compare the antimicrobial activity of the peptides prepared in <Example 1>, the minimum inhibitory concentration (MIC), […] measured. Here, the minimal inhibitory concentration (MIC) refers to the lowest concentration of a substance that prevents visible bacterial growth.
(§2) Specifically, the bacterial strains listed in Table 2 below were obtained and cultured in media suitable for each strain until the mid-log phase. The cultures were then diluted to a concentration of 2×10^4 cells/100 μL and prepared in microtiter plates (Nunc, USA). Subsequently, serial 2-fold dilutions of the peptides prepared in Example 1 were prepared, and 10 μL of each dilution was added to the wells, and the plates were incubated at 37° C. for 18 hours. Absorbance at 600 nm was measured using a microtiter plate reader (Merck ELISA reader, Germany) to determine the MIC values for each bacterial strain. The parent peptide dCATH was used as a control.

[2] = test system: Acinetobacter baumannii_isolate 19 (antibiotic-resistant); format: cell-based, Acinetobacter baumannii; details: isolate 19 (antibiotic-resistant)
Source text: as §1, §2

[3] = test system: Acinetobacter baumannii_isolate15 (antibiotic-resistant); format: cell-based, Acinetobacter baumannii; details: isolate15 (antibiotic-resistant)
Source text: as §1, §2

[4] = test system: Acinetobacter baumannii_isolate 26 (antibiotic-resistant); format: cell-based, Acinetobacter baumannii; details: isolate 26 (antibiotic-resistant)
Source text: as §1, §2

[5] = test system: Acinetobacter baumannii_isolate 3 (antibiotic-resistant); format: cell-based, Acinetobacter baumannii; details: isolate 3 (antibiotic-resistant)
Source text: as §1, §2

[6] = test system: Acinetobacter baumannii_isolate 1 (antibiotic-resistant); format: cell-based, Acinetobacter baumannii; details: isolate 1 (antibiotic-resistant)
Source text: as §1, §2

[7] = test system: Acinetobacter baumannii_isolate 18 (antibiotic-resistant); format: cell-based, Acinetobacter baumannii; details: isolate 18 (antibiotic-resistant)
Source text: as §1, §2

[8] = test system: Acinetobacter baumannii_isolate 2 (antibiotic-resistant); format: cell-based, Acinetobacter baumannii; details: isolate 2 (antibiotic-resistant)
Source text: as §1, §2

[9] = test system: Acinetobacter baumannii_isolate21 (antibiotic-resistant); format: cell-based, Acinetobacter baumannii; details: isolate21 (antibiotic-resistant)
Source text: as §1, §2

[10] = test system: Acinetobacter baumannii_isolate 4 (antibiotic-resistant); format: cell-based, Acinetobacter baumannii; details: isolate 4 (antibiotic-resistant)
Source text: as §1, §2

[11] = test system: Acinetobacter baumannii_isolate 13 (antibiotic-resistant); format: cell-based, Acinetobacter baumannii; details: isolate 13 (antibiotic-resistant)
Source text: as §1, §2

[12] = test system: Acinetobacter baumannii_isolate 8 (antibiotic-resistant); format: cell-based, Acinetobacter baumannii; details: isolate 8 (antibiotic-resistant)
Source text: as §1, §2

[13] = test system: Acinetobacter baumannii_isolate16 (antibiotic-resistant); format: cell-based, Acinetobacter baumannii; details: isolate16 (antibiotic-resistant)
Source text: as §1, §2

[14] = test system: Acinetobacter baumannii_isolate 12 (antibiotic-resistant); format: cell-based, Acinetobacter baumannii; details: isolate 12 (antibiotic-resistant)
Source text: as §1, §2

[15] = test system: Acinetobacter baumannii_isolate 23 (antibiotic-resistant); format: cell-based, Acinetobacter baumannii; details: isolate 23 (antibiotic-resistant)
Source text: as §1, §2

[16] = test system: Acinetobacter baumannii_isolate 5 (antibiotic-resistant); format: cell-based, Acinetobacter baumannii; details: isolate 5 (antibiotic-resistant)
Source text: as §1, §2

[17] = test system: Acinetobacter baumannii_isolate 24 (antibiotic-resistant); format: cell-based, Acinetobacter baumannii; details: isolate 24 (antibiotic-resistant)
Source text: as §1, §2

[18] = test system: Acinetobacter baumannii_isolate 7 (antibiotic-resistant); format: cell-based, Acinetobacter baumannii; details: isolate 7 (antibiotic-resistant)
Source text: as §1, §2

[19] = test system: Acinetobacter baumannii_isolate 25 (antibiotic-resistant); format: cell-based, Acinetobacter baumannii; details: isolate 25 (antibiotic-resistant)
Source text: as §1, §2

in vitro = format: cell-based; details: human, HaCaT keratinocyte cells, Cell Viability
Procedure: To evaluate the cytotoxicity of the peptides prepared in <Example 1>, toxicity was measured using a human keratinocyte cell line (HaCaT cell line, Dr. N. E. Fusenig, Heidelberg, Germany).
Specifically, HaCaT cells cultured in DMEM medium containing 10% fetal bovine serum (FBS) were seeded at a density of 2×10^5 cells/well into a microtiter plate and incubated for 24 hours. Then, peptides dCATH, dCATH-A1, dCATH-A2, dCATH-A3, dCATH-A4, dCATH-A5, dCATH-A6, and dCATH-A7 were added to each well at concentrations of 3.13, 6.25, 12.5, 25.0, 50.0, and 100.0 μM/well, followed by incubation for 24 hours in a 5% CO2 incubator. After 24 hours, 100 μL of a reaction solution containing 0.5 mg/mL MTT (Thiazolyl Blue Tetrazolium Bromide) dissolved in phosphate-buffered saline (PBS) was added to each well and reacted for 4 hours. After removing the supernatant, 200 μL of DMSO (dimethyl sulfoxide) was added to dissolve the formed MTT crystals, and absorbance at 570 nm was measured to determine cell viability.

[20] = test system: Pseudomonas aeruginosa ATCC 27853; format: cell-based
Source text: as §1, §2

[21] = test system: Acinetobacter baumannii KCTC 1017; format: cell-based; details: for MIC: KCTC 1017
Source text: as §1, §2

[22] = test system: Staphylococcus aureus ATCC 25923; format: cell-based; details: for MIC: ATCC 25923
Source text: as §1, §2

[23] = test system: Listeria monocytogenes KCTC 3710; format: cell-based
Source text: as §1, §2

[24] = test system: Escherichia coli ATCC 25922; format: cell-based
Source text: as §1, §2

[25] = test system: Bacillus cereus KCTC 2508; format: cell-based
Source text: as §1, §2

| Compound | MIC [1] | MIC [2] | MIC [3] | MIC [4] | MIC [5] | MIC [6] | MIC [7] | MIC [8] | MIC [9] | MIC [10] | MIC [11] | MIC [12] | MIC [13] | MIC [14] | MIC [15] | MIC [16] | MIC [17] | MIC [18] | MIC [19] | viability at 24 h, 3.13 µM (in vitro) | other results |
| --- | --- | --- | --- | --- | --- | --- | --- | --- | --- | --- | --- | --- | --- | --- | --- | --- | --- | --- | --- | --- | --- |
| CC[C@H](C)[C@H](NC(=O)[C@H](C)NC(=O)[C@H](CC(C)C)NC(=O)[C@H](CCCCN)NC(=O)[C@@H](NC(=O)[C@H](CC(C)C)NC(=O)[C@H](CCC(N)=O)NC(=O)[C@H](C)NC(=O)[C@H](C)NC(=O)[C@H](CCCNC(=N)N)NC(=O)[C@@H](N)CCCCN)C(C)C)C(=O)N[C@@H](CCCCN)C(=O)N[C@H](C(=O)N[C@@H](Cc1ccc(O)cc1)C(=O)N[C@@H](CCCNC(=N)N)C(=O)N[C@@H](C)C(=O)N[C@@H](Cc1c[nH]c2ccccc12)C(=O)N[C@@H](CCCCN)C(=O)N[C@@H](CCCNC(=N)N)C(=O)N[C@@H](CCCNC(=N)N)C(N)=O)[C@@H](C)CC [dCATH-A4] (H-KRAAQLVKLAIKIYRAWKRR-NH2; N-terminus assumed) | 2 µM (≈ 4.94 µg/mL) | 2 µM (≈ 4.94 µg/mL) | 2 µM (≈ 4.94 µg/mL) | 2 µM (≈ 4.94 µg/mL) | 2 µM (≈ 4.94 µg/mL) | 2 µM (≈ 4.94 µg/mL) | 2 µM (≈ 4.94 µg/mL) | 2 µM (≈ 4.94 µg/mL) | 2 µM (≈ 4.94 µg/mL) | 2 µM (≈ 4.94 µg/mL) | 2 µM (≈ 4.94 µg/mL) | 2 µM (≈ 4.94 µg/mL) | 2 µM (≈ 4.94 µg/mL) | 2 µM (≈ 4.94 µg/mL) | 2 µM (≈ 4.94 µg/mL) | 2 µM (≈ 4.94 µg/mL) | 2 µM (≈ 4.94 µg/mL) | 2 µM (≈ 4.94 µg/mL) | 2 µM (≈ 4.94 µg/mL) | 90.9% | viability at 24 h, 6.25 µM (in vitro): 90.2%; viability at 24 h, 12.5 µM (in vitro): 58%; viability at 24 h, 25 µM (in vitro): 5.59%; viability at 24 h, 50 µM (in vitro): 2.49%; viability at 24 h, 100 µM (in vitro): 1.36%; MIC [20]: 2 µM (≈ 4.94 µg/mL); MIC [21]: 2 µM (≈ 4.94 µg/mL); MIC [22]: 2 µM (≈ 4.94 µg/mL); MIC [23]: 2 µM (≈ 4.94 µg/mL); MIC [24]: 2 µM (≈ 4.94 µg/mL); MIC [25]: 2 µM (≈ 4.94 µg/mL) |
| CC[C@H](C)[C@H](NC(=O)[C@H](C)NC(=O)[C@H](CCCCN)NC(=O)[C@H](CCCCN)NC(=O)[C@@H](NC(=O)[C@H](CC(C)C)NC(=O)[C@H](CCC(N)=O)NC(=O)[C@H](C)NC(=O)[C@H](C)NC(=O)[C@H](CCCNC(=N)N)NC(=O)[C@@H](N)CCCCN)C(C)C)C(=O)N[C@@H](CCCCN)C(=O)N[C@@H](CCCCN)C(=O)N[C@@H](Cc1ccc(O)cc1)C(=O)N[C@@H](CCCNC(=N)N)C(=O)N[C@@H](C)C(=O)N[C@@H](Cc1c[nH]c2ccccc12)C(=O)N[C@@H](CCCCN)C(N)=O [dCATH-A7, KRAAQLVKKAIKKYRAWK] (H-KRAAQLVKKAIKKYRAWK-NH2; N-terminus assumed) | 1 µM (≈ 2.19 µg/mL) | 1 µM (≈ 2.19 µg/mL) | 1 µM (≈ 2.19 µg/mL) | 1 µM (≈ 2.19 µg/mL) | 1 µM (≈ 2.19 µg/mL) | 1 µM (≈ 2.19 µg/mL) | 1 µM (≈ 2.19 µg/mL) | 1 µM (≈ 2.19 µg/mL) | 1 µM (≈ 2.19 µg/mL) | 1 µM (≈ 2.19 µg/mL) | 1 µM (≈ 2.19 µg/mL) | 1 µM (≈ 2.19 µg/mL) | 1 µM (≈ 2.19 µg/mL) | 1 µM (≈ 2.19 µg/mL) | 1 µM (≈ 2.19 µg/mL) | 1 µM (≈ 2.19 µg/mL) | 1 µM (≈ 2.19 µg/mL) | 1 µM (≈ 2.19 µg/mL) | 1 µM (≈ 2.19 µg/mL) | 98% | viability at 24 h, 6.25 µM (in vitro): 99.2%; viability at 24 h, 12.5 µM (in vitro): 100%; viability at 24 h, 25 µM (in vitro): 100%; viability at 24 h, 50 µM (in vitro): 100%; viability at 24 h, 100 µM (in vitro): 98.4%; MIC [20]: 8 µM (≈ 17.5 µg/mL); MIC [21]: 1 µM (≈ 2.19 µg/mL); antimicrobial activity compared to the control peptide dCATH ([21]; against Acinetobacter baumannii): significantly superior antimicrobial activity; MIC [22]: 0.5 µM (≈ 1.09 µg/mL); antimicrobial activity compared to the control peptide dCATH ([22]; against Staphylococcus aureus strains): notably superior activity; MIC [23]: 4 µM (≈ 8.74 µg/mL); MIC [24]: 4 µM (≈ 8.74 µg/mL); MIC [25]: 1 µM (≈ 2.19 µg/mL) |
